The text below walks through data of US7888363B2, “Viral polymerase inhibitors” (Boehringer Ingelheim International GmbH, priority 2003, dated 2011).

Molecules are shown by their SMILES.

Sequence of hepatitis C virus RNA dependant polymerase (NS5B) (P26663 2420-3010): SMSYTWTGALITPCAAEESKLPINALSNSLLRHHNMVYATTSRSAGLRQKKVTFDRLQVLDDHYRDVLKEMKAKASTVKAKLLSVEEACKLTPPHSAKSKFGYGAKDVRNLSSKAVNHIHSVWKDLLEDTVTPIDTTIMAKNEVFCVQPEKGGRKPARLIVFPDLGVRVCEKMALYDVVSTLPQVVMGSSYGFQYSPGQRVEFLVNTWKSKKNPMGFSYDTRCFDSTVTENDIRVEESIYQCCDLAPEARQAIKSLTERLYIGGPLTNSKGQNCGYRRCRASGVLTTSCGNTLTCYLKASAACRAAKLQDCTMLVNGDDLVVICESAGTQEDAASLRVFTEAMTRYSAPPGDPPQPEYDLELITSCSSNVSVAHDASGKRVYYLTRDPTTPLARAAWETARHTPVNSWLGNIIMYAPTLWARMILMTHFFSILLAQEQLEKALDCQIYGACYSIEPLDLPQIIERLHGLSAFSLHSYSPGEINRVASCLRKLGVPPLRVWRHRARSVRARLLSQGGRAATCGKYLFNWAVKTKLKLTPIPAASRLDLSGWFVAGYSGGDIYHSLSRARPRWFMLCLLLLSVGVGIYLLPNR

One test deals with hepatitis C virus RNA dependant polymerase (NS5B) (Hepatitis C virus genotype 1b, UniProt P26663). The test is described as follows: Inhibition of NS5B RNA dependent RNA polymerase activity. Conditions: Table 1; HCV NS5B polymerase. It is filed as biochemical. On the procedure:
A suitable assay is described in the examples.
Inhibition of NS5B RNA Dependent RNA Polymerase Activity
The compounds of the invention were tested for inhibitory activity against the hepatitis C virus RNA dependant polymerase (NS5B), according to protocol described in WO 03/010141
Take `O=C(O)c1ccc2c(C3CCCCC3)c(-c3cccs3)n(CC(=O)N3CCOCC3)c2c1` [Example 1033]: the IC50 was below 200 nM.
Molecule `O=C(O)c1ccc2c(C3CCCCC3)c(-c3ccsc3)n(CC(=O)N3CCC(N4CCCC4)CC3)c2c1` [Example 1037] returned an IC50 below 200 nM.
Regarding `CCCN(CCOC)C(=O)Cn1c(-c2ccoc2)c(C2CCCCC2)c2ccc(C(=O)O)cc21` [Example 1015], the IC50 was in the range of 200 to 1000 nM.
`COCCN(CCOC)C(=O)Cn1c(-c2ccco2)c(C2CCCCC2)c2ccc(C(=O)O)cc21` [Example 1014] came in with an IC50 of 200 to 1000 nM.
In the case of `CN1CCCN(C(=O)Cn2c(-c3ccoc3)c(C3CCCCC3)c3ccc(C(=O)O)cc32)CC1` [Example 1003], the IC50 is below 200 nM.
On to `CCN(CC)CCN(CC)C(=O)Cn1c(-c2ccoc2)c(C2CCCCC2)c2ccc(C(=O)O)cc21` [Example 1007], for which the IC50 was below 200 nM.
In turn, `O=C(O)c1ccc2c(C3CCCCC3)c(-c3cnccn3)n(CC(=O)N3CCC(N4CCCC4)CC3)c2c1` [Example 1045] had an IC50 below 200 nM.
In turn, `O=C(O)c1ccc2c(C3CCCCC3)c(-c3ccccn3)n(CC(=O)N3CCCCC3)c2c1` [Example 1085] displayed an IC50 of 200 to 1000 nM.
`O=C(O)/C=C/c1ccc(NC(=O)C2(NC(=O)Cn3c(-c4ccoc4)c(C4CCCCC4)c4ccc(C(=O)O)cc43)CCNCC2)cc1` [Example 1080]: the IC50 was below 200 nM.
As for `CN1CCN(C(=O)Cn2c(-c3ccccn3)c(C3CCCCC3)c3ccc(C(=O)O)cc32)CC1` [Example 1082], the IC50 is below 200 nM.
With `CC(C)(NC(=O)Cn1c(-c2ccoc2)c(C2CCCCC2)c2ccc(C(=O)O)cc21)C(=O)Nc1ccc(-c2nc(C(=O)O)cs2)cc1` [Example 1052], the IC50 was below 200 nM.
On the same count and under the same terms, with `CN(CC(=O)O)C(=O)Cn1c(-c2ccoc2)c(C2CCCCC2)c2ccc(C(=O)O)cc21` [Example 1072] the figure was below 200 nM.
The molecule `O=C(Cn1c(-c2ccoc2)c(C2CCCCC2)c2ccc(C(=O)O)cc21)NCC1CCCO1` (centres unmarked) [Example 1113] registered an IC50 of 200 to 1000 nM.
Still for that read-out and setting: the figure for `CN(C)CC(=O)NNC(=O)Cn1c(-c2ccoc2)c(C2CCCCC2)c2ccc(C(=O)O)cc21` [Example 1132] is below 200 nM.
On the same count and under the same terms, with `O=C(O)c1ccc2c(C3CCCCC3)c(-c3ccco3)n(CC(=O)N3CCOCC3)c2c1` [Example 1030] the figure was below 200 nM; with `CN(CCc1ccccn1)C(=O)Cn1c(-c2ccoc2)c(C2CCCCC2)c2ccc(C(=O)O)cc21` [Example 1103], below 200 nM.
`CN1CCN(C(=O)Cn2c(-c3ccc(Br)cn3)c(C3CCCCC3)c3ccc(C(=O)O)cc32)CC1` [Example 1134] displayed an IC50 of 200 to 1000 nM.

The same test, now with this note: Table 2; HCV NS5B polymerase.
For the molecule `O=C(NS(=O)(=O)CC(F)(F)F)c1ccc2c(C3CCCCC3)c(-c3ccoc3)n(CC(=O)N3CCOCC3)c2c1` [Example 2027], the IC50 is below 200 nM.
The same measure, in the same setting: the figure for `Cc1c(S(=O)(=O)NC(=O)c2ccc3c(C4CCCCC4)c(-c4ccoc4)n(CC(=O)N4CCOCC4)c3c2)cnn1-c1ccccc1` [Example 2042] is below 200 nM.
The molecule `O=C(NS(=O)(=O)C(F)(F)F)c1ccc2c(C3CCCCC3)c(-c3ccoc3)n(CC(=O)N3CCOCC3)c2c1` [Example 2005] displayed an IC50 below 200 nM.

The test is the same for the next values; noted with them: Table 3; HCV NS5B polymerase.
`CC(C)(NC(=O)Cn1c(-c2ccoc2)c(C2CCCCC2)c2ccc(C(=O)NC(C)(C)C(=O)Nc3ccc(/C=C/C(=O)O)cc3)cc21)C(=O)Nc1ccc(/C=C/C(=O)O)cc1` [Example 3005] had an IC50 below 200 nM.
In the case of `O=C(O)/C=C/c1ccc(NC(=O)C2(NC(=O)c3ccc4c(C5CCCCC5)c(-c5ccccn5)n(CC(=O)N5CCCC5)c4c3)CCC2)cc1` [Example 3008], the IC50 was below 200 nM.
As to `CN1CCN(C(=O)Cn2c(-c3ccccn3)c(C3CCCCC3)c3ccc(C(=O)NC(C)(C)C(=O)Nc4ccc(/C=C/C(=O)O)cc4)cc32)CC1` [Example 3006], the IC50 was below 200 nM.

Staying with this test, now noted: Table 4; class ranges.
Consider `O=C(NCCc1ccccc1)c1ccc2c(C3CCCCC3)c(-c3ccoc3)n(CC(=O)N3CCOCC3)c2c1` [Example 4048], for which the IC50 was 1000 to 10000 nM.
`Cc1nc(C2(NC(=O)c3ccc4c(C5CCCCC5)c(-c5ccoc5)n(CC(=O)N5CCOCC5)c4c3)CCC2)cs1` [Example 4098] yielded an IC50 of 200 to 1000 nM.
Still for that read-out and setting: with `CC(C)(NC(=O)c1ccc2c(C3CCCCC3)c(-c3ccoc3)n(CC(=O)N3CCOCC3)c2c1)C(=O)O` [Example 4087] the figure was below 200 nM; with `CNC(=O)c1ccc2c(C3CCCCC3)c(-c3ccoc3)n(CC(=O)N(C)C)c2c1` [Example 4056], 200 to 1000 nM; with `CC(C)(NC(=O)c1ccc2c(C3CCCCC3)c(-c3ccoc3)n(CC(=O)N3CCOCC3)c2c1)C(N)=O` [Example 4077], below 200 nM.
Regarding `CC(C)(NC(=O)c1ccc2c(C3CCCCC3)c(-c3ccoc3)n(CC(=O)N3CCC(N4CCCC4)CC3)c2c1)C(N)=O` [Example 4081], the half-maximal inhibitory concentration (IC50) was below 200 nM.
Turning to `COCC(C)NC(=O)c1ccc2c(C3CCCCC3)c(-c3ccoc3)n(CC(=O)N3CCN(C)CC3)c2c1` (centres unmarked) [Example 4020], the IC50 lay in the range of 200 to 1000 nM.
Regarding `COc1cc(CNC(=O)c2ccc3c(C4CCCCC4)c(-c4ccoc4)n(CC(=O)N4CCN(C)CC4)c3c2)ccc1O` [Example 4030], the IC50 is below 200 nM.
`Cn1c(C2(NC(=O)c3ccc4c(C5CCCCC5)c(-c5ccoc5)n(CC(=O)N5CCOCC5)c4c3)CCC2)nc2ccc(C=CC(=O)O)cc21` [Example 4082] gave an IC50 below 200 nM.
Same read-out and setting: the figure for `COc1ccc(CNC(=O)c2ccc3c(C4CCCCC4)c(-c4ccoc4)n(CC(=O)N4CCOCC4)c3c2)cc1OC` [Example 4006] is below 200 nM; for `O=C(O)C=Cc1ccc2nc(C3(NC(=O)c4ccc5c(C6CCCC6)c(-c6ccoc6)n(CC(=O)N6CCOCC6)c5c4)CCC3)[nH]c2c1` [Example 4070] it is below 200 nM.

Staying with this test, now noted: Table 5; HCV NS5B polymerase.
For the molecule `CC(C(=O)N1CCOCC1)n1c(-c2ccoc2)c(C2CCCCC2)c2ccc(C(=O)O)cc21` (centres unmarked) [Example 5008], the IC50 is 1000 to 10000 nM.

Still in this test, the particulars now being: Table 7; class ranges.
`O=C(N[C@H]1CC[C@H](O)CC1)c1ccc2c(c1)c(C1CCCCC1)c(-c1ccoc1)n2CC(=O)N1CCC(N2CCCC2)CC1` [Example 7041] gave a concentration for half-maximal inhibition (IC50) of 1000 to 10000 nM.
The molecule `O=C(NCCN1CCCC1)c1ccc2c(c1)c(C1CCCCC1)c(-c1ccoc1)n2CC(=O)N1CCC(N2CCCC2)CC1` [Example 7014] returned an IC50 of 1000 to 10000 nM.
In turn, `CC(C)(C)OC(=O)C(C)(C)NC(=O)c1ccc2c(c1)c(C1CCCCC1)c(-c1ccoc1)n2CC(=O)N1CCC(N2CCCC2)CC1` [Example 7047] gave a half-maximal inhibitory concentration (IC50) of 1000 to 10000 nM.
On to `O=C(NCCc1c[nH]cn1)c1ccc2c(c1)c(C1CCCCC1)c(-c1ccoc1)n2CC(=O)N1CCC(N2CCCC2)CC1` [Example 7015], for which the IC50 lay within 1000 to 10000 nM.
As to `O=C(NC(Cc1ccccc1)c1ccccc1)c1ccc2c(c1)c(C1CCCCC1)c(-c1ccoc1)n2CC(=O)N1CCC(N2CCCC2)CC1` (centres unmarked) [Example 7025], the IC50 is 1000 to 10000 nM.
Same read-out and setting: the figure for `O=C(NC1CCCc2ccccc21)c1ccc2c(c1)c(C1CCCCC1)c(-c1ccoc1)n2CC(=O)N1CCC(N2CCCC2)CC1` (centres unmarked) [Example 7012] is 1000 to 10000 nM; for `NC(=O)c1ccc2c(c1)c(C1CCCCC1)c(-c1ccoc1)n2CC(=O)N1CCC(N2CCCC2)CC1` [Example 7058] it is 1000 to 10000 nM.
Regarding `O=C(Nc1cccc(-c2ccccc2)c1)c1ccc2c(c1)c(C1CCCCC1)c(-c1ccoc1)n2CC(=O)N1CCC(N2CCCC2)CC1` [Example 7037], the IC50 was in the range of 1000 to 10000 nM.
Molecule `O=C(O)COc1cc2c(C3CCCCC3)c(-c3ccoc3)n(CC(=O)N3CCOCC3)c2cc1C(=O)O` [Example 7011] gave an IC50 of 1000 to 10000 nM.

The term IC50 denotes the concentration needed to halve the response being measured. Read a high IC50 as weaker potency in that assay.
